Measured values taken from patent publication US20020026053A1, “Novel 3-(substituted) -2- indolinones compounds and use thereof as inhibitors of protein kinase activity” (priority 1997, published 2002).

Target: T1, Met receptor (EGFR/Met chimeric cells, EMR) (Homo sapiens, UniProt P08581)
T1 construct: expressed in transfected cells; the other entry of the earlier key: EGFR (P00533, Epidermal growth factor receptor)
Test: Met Autophosphorylation Assay
Type: biochemical
Conditions: protocol P.130
Outline: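 Met phosphorylation was measured by capture ELISA. Lysates (90 μg/100 μl, HNTG plus 1 mM PMSF) from transiently transfected EGFR/Met chimera (EMR) cells were bound for 60 min at room temperature to wells holding rabbit anti-Met (C-28) on goat anti-rabbit coat. Phosphotyrosine was the read-out.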

T1 sequence (P08581 with tags, fused parts or gaps): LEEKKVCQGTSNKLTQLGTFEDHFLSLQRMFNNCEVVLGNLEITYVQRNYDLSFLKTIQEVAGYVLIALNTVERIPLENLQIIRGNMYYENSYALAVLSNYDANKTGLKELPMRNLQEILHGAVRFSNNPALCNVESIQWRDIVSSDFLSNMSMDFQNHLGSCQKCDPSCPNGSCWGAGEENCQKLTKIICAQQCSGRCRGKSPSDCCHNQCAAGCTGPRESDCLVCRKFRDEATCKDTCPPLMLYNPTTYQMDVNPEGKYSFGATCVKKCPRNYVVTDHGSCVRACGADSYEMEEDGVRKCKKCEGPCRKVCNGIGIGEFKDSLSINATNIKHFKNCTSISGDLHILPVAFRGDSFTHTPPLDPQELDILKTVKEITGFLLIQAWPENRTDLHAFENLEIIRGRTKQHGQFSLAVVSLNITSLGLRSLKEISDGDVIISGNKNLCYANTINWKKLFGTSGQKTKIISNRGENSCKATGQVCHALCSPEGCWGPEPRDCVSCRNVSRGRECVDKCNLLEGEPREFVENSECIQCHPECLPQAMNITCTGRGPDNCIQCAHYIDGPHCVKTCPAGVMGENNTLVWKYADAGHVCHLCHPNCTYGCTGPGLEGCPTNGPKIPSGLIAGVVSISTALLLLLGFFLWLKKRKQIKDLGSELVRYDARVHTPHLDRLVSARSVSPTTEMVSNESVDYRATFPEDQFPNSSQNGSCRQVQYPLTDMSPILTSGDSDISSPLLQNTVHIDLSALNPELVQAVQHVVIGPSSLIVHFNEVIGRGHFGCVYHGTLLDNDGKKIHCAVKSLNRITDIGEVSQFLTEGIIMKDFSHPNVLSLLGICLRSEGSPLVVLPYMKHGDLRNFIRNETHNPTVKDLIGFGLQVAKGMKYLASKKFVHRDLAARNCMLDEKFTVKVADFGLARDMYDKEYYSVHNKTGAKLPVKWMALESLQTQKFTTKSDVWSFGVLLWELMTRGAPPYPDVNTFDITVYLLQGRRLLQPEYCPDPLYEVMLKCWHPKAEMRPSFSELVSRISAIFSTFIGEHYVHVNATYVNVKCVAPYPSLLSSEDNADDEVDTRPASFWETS

## COC1CCCN1C=C1C(=O)Nc2c(Br)cc(Br)cc21 (racemic) [10740/A04]
  Met Kinase % Inhibition (P.130): 48.2%

## COC1CCCN1C=C1C(=O)Nc2ccc(I)cc21 (racemic) [10740/B04]
  Met Kinase % Inhibition (P.130): 76.7%

## Cc1c(Br)cc(Br)c2c1C(=Cc1ccc(CO)o1)C(=O)N2 [10739/H11]
  Met Kinase % Inhibition (P.130): 75.8%

## O=C1Nc2c(Br)cc(Br)cc2C1=Cc1cnc2ccccc2c1 [10740/A02]
  Met Kinase % Inhibition (P.130): 56.3%

## O=C1Nc2c(Br)cc(Br)cc2C1=Cc1ccnc2ccccc12 [10740/A03]
  Met Kinase % Inhibition (P.130): 77.8%

## O=C1Nc2c(Br)cc(Br)cc2C1=Cc1ccsc1 [10740/A05]
  Met Kinase % Inhibition (P.130): 79.5%

## O=C1Nc2c(Br)cc(Br)cc2C1=Cc1ccc2ccccc2n1 [10740/A06]
  Met Kinase % Inhibition (P.130): 48.5%

## Cn1cc(C=C2C(=O)Nc3c(Br)cc(Br)cc32)c2ccccc21 [10740/A07]
  Met Kinase % Inhibition (P.130): 54.9%

## Cc1[nH]c2ccccc2c1C=C1C(=O)Nc2c(Br)cc(Br)cc21 [10740/A08]
  Met Kinase % Inhibition (P.130): 43.2%

## O=C1Nc2c(Br)cc(Br)cc2C1=Cc1cc(Br)cs1 [10740/A10]
  Met Kinase % Inhibition (P.130): 45.1%

## CCCCOc1ccc(C=C2C(=O)Nc3c(Br)cc(Br)cc32)cc1 [10740/A11]
  Met Kinase % Inhibition (P.130): 30.3%

## O=C1Nc2ccc(I)cc2C1=Cc1cnc2ccccc2c1 [10740/B02]
  Met Kinase % Inhibition (P.130): 79.2%

## O=C1Nc2ccc(I)cc2C1=Cc1ccnc2ccccc12 [10740/B03]
  Met Kinase % Inhibition (P.130): 84.8%

## O=C1Nc2ccc(I)cc2C1=Cc1ccsc1 [10740/B05]
  Met Kinase % Inhibition (P.130): 82.3%

## O=C1Nc2ccc(I)cc2C1=Cc1ccc2ccccc2n1 [10740/B06]
  Met Kinase % Inhibition (P.130): 68.9%

## Cn1cc(C=C2C(=O)Nc3ccc(I)cc32)c2ccccc21 [10740/B07]
  Met Kinase % Inhibition (P.130): 73.7%

## Cc1[nH]c2ccccc2c1C=C1C(=O)Nc2ccc(I)cc21 [10740/B08]
  Met Kinase % Inhibition (P.130): 65.0%

## O=C1Nc2ccc(I)cc2C1=Cc1cc(Br)cs1 [10740/B10]
  Met Kinase % Inhibition (P.130): 58.0%

## CCCCOc1ccc(C=C2C(=O)Nc3ccc(I)cc32)cc1 [10740/B11]
  Met Kinase % Inhibition (P.130): 68.6%

## Cc1c(Br)ccc2c1C(=Cc1cnc3ccccc3c1)C(=O)N2 [10740/C02]
  Met Kinase % Inhibition (P.130): 45.1%

## Cc1c(Br)ccc2c1C(=Cc1ccnc3ccccc13)C(=O)N2 [10740/C03]
  Met Kinase % Inhibition (P.130): 63.6%

## COC1CCCN1C=C1C(=O)Nc2ccc(Br)c(C)c21 (stereo not shown) [10740/C04]
  Met Kinase % Inhibition (P.130): −4.9%

## Cc1c(Br)ccc2c1C(=Cc1ccsc1)C(=O)N2 [10740/C05]
  Met Kinase % Inhibition (P.130): 66.1%

## Cc1c(Br)ccc2c1C(=Cc1ccc3ccccc3n1)C(=O)N2 [10740/C06]
  Met Kinase % Inhibition (P.130): 49.3%

## Cc1c(Br)ccc2c1C(=Cc1cn(C)c3ccccc13)C(=O)N2 [10740/C07]
  Met Kinase % Inhibition (P.130): 44.3%

## Cc1[nH]c2ccccc2c1C=C1C(=O)Nc2ccc(Br)c(C)c21 [10740/C08]
  Met Kinase % Inhibition (P.130): 28.7%

## Cc1c(Br)ccc2c1C(=Cc1cc(Br)cs1)C(=O)N2 [10740/C10]
  Met Kinase % Inhibition (P.130): −1.8%

## CCCCOc1ccc(C=C2C(=O)Nc3ccc(Br)c(C)c32)cc1 [10740/C11]
  Met Kinase % Inhibition (P.130): −10.8%

## CNS(=O)(=O)c1ccc2c(c1)C(=Cc1cnc3ccccc3c1)C(=O)N2 [10740/D02]
  Met Kinase % Inhibition (P.130): 49.9%

## CNS(=O)(=O)c1ccc2c(c1)C(=Cc1ccnc3ccccc13)C(=O)N2 [10740/D03]
  Met Kinase % Inhibition (P.130): 64.4%

## CNS(=O)(=O)c1ccc2c(c1)C(=CN1CCCC1OC)C(=O)N2 (stereo not shown) [10740/D04]
  Met Kinase % Inhibition (P.130): 19.4%

## CNS(=O)(=O)c1ccc2c(c1)C(=Cc1ccsc1)C(=O)N2 [10740/D05]
  Met Kinase % Inhibition (P.130): 39.3%

## CNS(=O)(=O)c1ccc2c(c1)C(=Cc1ccc3ccccc3n1)C(=O)N2 [10740/D06]
  Met Kinase % Inhibition (P.130): 41.8%

## CNS(=O)(=O)c1ccc2c(c1)C(=Cc1cn(C)c3ccccc13)C(=O)N2 [10740/D07]
  Met Kinase % Inhibition (P.130): 27.3%

## CNS(=O)(=O)c1ccc2c(c1)C(=Cc1c(C)[nH]c3ccccc13)C(=O)N2 [10740/D08]
  Met Kinase % Inhibition (P.130): 30.3%

## CNS(=O)(=O)c1ccc2c(c1)C(=Cc1cc(Br)cs1)C(=O)N2 [10740/D10]
  Met Kinase % Inhibition (P.130): 16.1%

## CCCCOc1ccc(C=C2C(=O)Nc3ccc(S(=O)(=O)NC)cc32)cc1 [10740/D11]
  Met Kinase % Inhibition (P.130): −9.1%

## O=C1Nc2ccc(S(=O)(=O)Nc3ccc(C(F)(F)F)cc3)cc2C1=Cc1cnc2ccccc2c1 [10740/E02]
  Met Kinase % Inhibition (P.130): 48.2%

## O=C1Nc2ccc(S(=O)(=O)Nc3ccc(C(F)(F)F)cc3)cc2C1=Cc1ccnc2ccccc12 [10740/E03]
  Met Kinase % Inhibition (P.130): 66.4%

## COC1CCCN1C=C1C(=O)Nc2ccc(S(=O)(=O)Nc3ccc(C(F)(F)F)cc3)cc21 (stereo not shown) [10740/E04]
  Met Kinase % Inhibition (P.130): 41.8%

## O=C1Nc2ccc(S(=O)(=O)Nc3ccc(C(F)(F)F)cc3)cc2C1=Cc1ccsc1 [10740/E05]
  Met Kinase % Inhibition (P.130): 75.6%

## O=C1Nc2ccc(S(=O)(=O)Nc3ccc(C(F)(F)F)cc3)cc2C1=Cc1ccc2ccccc2n1 [10740/E06]
  Met Kinase % Inhibition (P.130): 16.6%

## Cn1cc(C=C2C(=O)Nc3ccc(S(=O)(=O)Nc4ccc(C(F)(F)F)cc4)cc32)c2ccccc21 [10740/E07]
  Met Kinase % Inhibition (P.130): 19.7%

## Cc1[nH]c2ccccc2c1C=C1C(=O)Nc2ccc(S(=O)(=O)Nc3ccc(C(F)(F)F)cc3)cc21 [10740/E08]
  Met Kinase % Inhibition (P.130): 39.0%

## O=C1Nc2ccc(S(=O)(=O)Nc3ccc(C(F)(F)F)cc3)cc2C1=Cc1cc(Br)cs1 [10740/E10]
  Met Kinase % Inhibition (P.130): 61.9%

## CCCCOc1ccc(C=C2C(=O)Nc3ccc(S(=O)(=O)Nc4ccc(C(F)(F)F)cc4)cc32)cc1 [10740/E11]
  Met Kinase % Inhibition (P.130): −16.9%

## O=C1Nc2ccc(S(=O)(=O)N3CCOCC3)cc2C1=Cc1cnc2ccccc2c1 [10740/F02]
  Met Kinase % Inhibition (P.130): 59.4%

## O=C1Nc2ccc(S(=O)(=O)N3CCOCC3)cc2C1=Cc1ccnc2ccccc12 [10740/F03]
  Met Kinase % Inhibition (P.130): 32.8%

## COC1CCCN1C=C1C(=O)Nc2ccc(S(=O)(=O)N3CCOCC3)cc21 (stereo not shown) [10740/F04]
  Met Kinase % Inhibition (P.130): −5.2%

## O=C1Nc2ccc(S(=O)(=O)N3CCOCC3)cc2C1=Cc1ccsc1 [10740/F05]
  Met Kinase % Inhibition (P.130): 52.1%

## O=C1Nc2ccc(S(=O)(=O)N3CCOCC3)cc2C1=Cc1ccc2ccccc2n1 [10740/F06]
  Met Kinase % Inhibition (P.130): 25.3%

## Cn1cc(C=C2C(=O)Nc3ccc(S(=O)(=O)N4CCOCC4)cc32)c2ccccc21 [10740/F07]
  Met Kinase % Inhibition (P.130): 28.4%

## Cc1[nH]c2ccccc2c1C=C1C(=O)Nc2ccc(S(=O)(=O)N3CCOCC3)cc21 [10740/F08]
  Met Kinase % Inhibition (P.130): 35.9%

## O=C1Nc2ccc(S(=O)(=O)N3CCOCC3)cc2C1=Cc1cc(Br)cs1 [10740/F10]
  Met Kinase % Inhibition (P.130): 58.3%

## CCCCOc1ccc(C=C2C(=O)Nc3ccc(S(=O)(=O)N4CCOCC4)cc32)cc1 [10740/F11]
  Met Kinase % Inhibition (P.130): 42.9%

## O=C1Nc2ccc(CCCl)cc2C1=Cc1cnc2ccccc2c1 [10740/G02]
  Met Kinase % Inhibition (P.130): 55.2%

## O=C1Nc2ccc(CCCl)cc2C1=Cc1ccnc2ccccc12 [10740/G03]
  Met Kinase % Inhibition (P.130): 34.8%

## COC1CCCN1C=C1C(=O)Nc2ccc(CCCl)cc21 (stereo not shown) [10740/G04]
  Met Kinase % Inhibition (P.130): 9.1%

## O=C1Nc2ccc(CCCl)cc2C1=Cc1ccsc1 [10740/G05]
  Met Kinase % Inhibition (P.130): 30.3%

## O=C1Nc2ccc(CCCl)cc2C1=Cc1ccc2ccccc2n1 [10740/G06]
  Met Kinase % Inhibition (P.130): 25.0%

## Cn1cc(C=C2C(=O)Nc3ccc(CCCl)cc32)c2ccccc21 [10740/G07]
  Met Kinase % Inhibition (P.130): 10.8%

## Cc1[nH]c2ccccc2c1C=C1C(=O)Nc2ccc(CCCl)cc21 [10740/G08]
  Met Kinase % Inhibition (P.130): 33.4%

## O=C1Nc2ccc(CCCl)cc2C1=Cc1cc(Br)cs1 [10740/G10]
  Met Kinase % Inhibition (P.130): 19.4%

## CCCCOc1ccc(C=C2C(=O)Nc3ccc(CCCl)cc32)cc1 [10740/G11]
  Met Kinase % Inhibition (P.130): 13.3%

## Cc1c(Br)cc(Br)c2c1C(=Cc1cnc3ccccc3c1)C(=O)N2 [10740/H02]
  Met Kinase % Inhibition (P.130): 28.7%

## Cc1c(Br)cc(Br)c2c1C(=Cc1ccnc3ccccc13)C(=O)N2 [10740/H03]
  Met Kinase % Inhibition (P.130): 17.5%

## COC1CCCN1C=C1C(=O)Nc2c(Br)cc(Br)c(C)c21 (stereo not shown) [10740/H04]
  Met Kinase % Inhibition (P.130): 30.9%

## Cc1c(Br)cc(Br)c2c1C(=Cc1ccsc1)C(=O)N2 [10740/H05]
  Met Kinase % Inhibition (P.130): 25.6%

## Cc1c(Br)cc(Br)c2c1C(=Cc1ccc3ccccc3n1)C(=O)N2 [10740/H06]
  Met Kinase % Inhibition (P.130): 33.4%

## Cc1c(Br)cc(Br)c2c1C(=Cc1cn(C)c3ccccc13)C(=O)N2 [10740/H07]
  Met Kinase % Inhibition (P.130): 1.5%

## Cc1[nH]c2ccccc2c1C=C1C(=O)Nc2c(Br)cc(Br)c(C)c21 [10740/H08]
  Met Kinase % Inhibition (P.130): 28.1%

## Cc1c(Br)cc(Br)c2c1C(=Cc1cc(Br)cs1)C(=O)N2 [10740/H10]
  Met Kinase % Inhibition (P.130): 43.7%

## CCCCOc1ccc(C=C2C(=O)Nc3c(Br)cc(Br)c(C)c32)cc1 [10740/H11]
  Met Kinase % Inhibition (P.130): 17.2%
